Laboratory results: publication PMC10584170, “Machine learning-based phenotypic imaging to characterise the targetable biology of Plasmodium falciparum male gametocytes for the development of transmission-blocking antimalarials” (PLOS Pathogens, 2023)

Columns and labels:
[1] = tested on: P. falciparum male gametocytes; test: P. falciparum Dual Gamete Formation Assay (PfDGFA), male readout (exflagellation); assay type: cell-based, Plasmodium falciparum NF54; settings: for Average inhibition male (%): average of replicates; for % inhibition male (individual replicates) R1: replicate R1; for % inhibition male (individual replicates) R3: replicate R3; for % inhibition male (individual replicates) R4: replicate R4; for Activity: hit = >50% inhibition in male or female readout in at least 3 replicates, 0 = no class assigned
Description: (§1) P. falciparum NF54 (originally isolated from an imported malaria case in the Netherlands in the 1980s; BEI Resources, cat. No. MRA-1000) strain asexual parasites were maintained between 0.3–5% parasitaemia by regular passage in complete culture medium (RPMI supplemented with 25 mM HEPES, 50 μg ml^−1 hypoxanthine, 4.8 g l^−1 NaHCO3, 2mM L-glutamine, 5% pooled type AB serum, 0.5% Albumax II (Gibco)) at 4% haematocrit in washed whole blood (National Blood and Transfusion Service or Centro de Transfusiones de la Comunidad de Madrid CTCM) under a 1% O2/3% CO2/96% N2 environment. Gametocytes were induced by seeding culture flasks at 2% parasitaemia/4% haematocrit and subjecting them to daily medium changes for 14 days whilst maintaining a temperature of 37°C at all times. On Day 14, the maturity of gametocytes was assessed by quantifying male gametogenesis (exflagellation). A 20 μl sample of gametocyte culture was mixed with equal volume of ookinete medium (complete culture medium supplemented with 0.1 μM xanthurenic acid) at room temperature and transferred to a haemocytometer. After 20 min at room temperature, exflagellation was accurately quantified as described in Delves et al. 2016 [17].
(§2) The Pf DGFA was performed as described in Delves et al. 2016 [17]. […] Plates were then incubated for 24 h at 37°C in a humidified box under a 1% O2/3% CO2/96% N2 gas mix. Gametogenesis was triggered by addition of 10 μl per well of ookinete medium + 0.27 μg ml^-1 Cy3-labelled anti-Pfs25 antibody. Plates were incubated on a metal block at 4°C for 4 min to ensure even cooling, then 28°C for a further 4 min. Exflagellation was recorded by capturing 10 frames over 1 s under brightfield illumination using a x4 objective with a 1.5x zoom (effectively x6) attached to an automated Nikon Ti fluorescence microscope. After recording exflagellation, plates were incubated for a further 24 h in the dark at 28°C to ensure maximal expression of Pfs25 by female gametes. The plates were then returned to the microscope and female gametes imaged at x6 using fluorescence microscopy.
(§3) Exflagellation centres and female gametes were quantified using custom image analysis pipelines developed within ICY Bioimage Analysis (https://icy.bioimageanalysis.org/).

[2] = tested on: P. falciparum female gametocytes; test: P. falciparum Dual Gamete Formation Assay (PfDGFA), female readout (Pfs25-positive female gametes); assay type: cell-based, Plasmodium falciparum NF54; settings: for Average inhibition female (%): average of replicates; for % inhibition female (individual replicates) R1: replicate R1; for % inhibition female (individual replicates) R3: replicate R3; for % inhibition female (individual replicates) R4: replicate R4
Description: as §1, §2, §3

[3] = 2µM, 24h preincubation with gametocytes
[4] = PfDGFA at 2µM, 24h preincubation with gametocytes prior to induction of gametogenesis
[5] = PfDGFA at 2µM, 24h preincubation
[6] = 2µM, 24h preincubation with gametocytes prior to induction of gametogenesis
[7] = 2µM, 24h preincubation, hits selected on >50% inhibition in the male readout across replicates
[8] = 2µM, 24h preincubation, hits selected on >50% inhibition in the female readout across replicates
[9] = 2µM, 24h preincubation, number of replicates with >50% inhibition in the male readout
[10] = 2µM, 24h preincubation, number of replicates with >50% inhibition in the female readout
[11] = PfDGFA at 2µM, 24h preincubation with gametocytes

SMILES | Average inhibition male (%) [1, 6] [%] | % inhibition male (individual replicates) R1 [1, 6] [%] | % inhibition male (individual replicates) R3 [1, 6] [%] | % inhibition male (individual replicates) R4 [1, 6] [%] | HitlevelM [1, 7] | Activity [1, 5] | Average inhibition female (%) [2, 6] [%] | % inhibition female (individual replicates) R1 [2, 6] [%] | % inhibition female (individual replicates) R3 [2, 6] [%] | % inhibition female (individual replicates) R4 [2, 6] [%] | HitlevelF [2, 8] | other results
COc1ccc2nc3cc(Cl)ccc3c(N)c2c1.Cl [TCMDC-125835] |  |  |  |  |  |  |  |  |  |  |  | Average inhibition male (%) [1, 3]: 96.0%; % inhibition male (individual replicates) R1 [1, 3]: 94.1%; % inhibition male (individual replicates) R3 [1, 3]: 90.9%; % inhibition male (individual replicates) R4 [1, 3]: 101.6%; Average inhibition female (%) [2, 3]: 50.6%; % inhibition female (individual replicates) R1 [2, 3]: 39.5%; % inhibition female (individual replicates) R3 [2, 3]: 15.3%; % inhibition female (individual replicates) R4 [2, 3]: 62.7%
Clc1ccc(Cc2nc3ccccc3[nH]2)cc1Cl [TCMDC-125878] |  |  |  |  |  |  |  |  |  |  |  | % inhibition male (individual replicates) R1 [1, 4]: 0.8%; % inhibition male (individual replicates) R3 [1, 4]: -14.5%; % inhibition male (individual replicates) R4 [1, 4]: 2.2%; Average inhibition male (%) [1, 5]: -4.5%; % inhibition female (individual replicates) R1 [2, 4]: 8.9%; % inhibition female (individual replicates) R3 [2, 4]: -15.0%; % inhibition female (individual replicates) R4 [2, 4]: -0.8%; Average inhibition female (%) [2, 5]: 0.655%
COc1ccc(CCNCCCCCCNCCc2ccc(-c3ccccc3)cc2)cc1OC.Cl [TCMDC-131267] |  |  |  |  |  |  |  |  |  |  |  | Average inhibition male (%) [1, 3]: 91.2%; % inhibition male (individual replicates) R1 [1, 3]: 90.5%; % inhibition male (individual replicates) R4 [1, 3]: 88.4%; Average inhibition female (%) [2, 3]: 51.9%; % inhibition female (individual replicates) R1 [2, 3]: 49.5%; % inhibition female (individual replicates) R3 [2, 3]: 51.6%; % inhibition female (individual replicates) R4 [2, 3]: 50.9%
COc1ccc(CCNCCCCCNCCc2ccc(Cl)cc2)cc1OC.Cl [TCMDC-131269] | 50.1 | 46.0 | 29.0 | 62.2 | 2 | 0 | 7.8 | 17.8 | -21.2 | 18.8 | 0 | 
Br.Oc1ccc(CCNCCCCCCNCCc2ccc(Cl)c3ccccc23)cc1O [TCMDC-131271] | 50.9 | 51.3 | 62.1 | 62.3 |  |  | 16.5 | 16.8 | 9.0 | 24.5 |  | HitlevelM [1, 9]: 3; HitlevelF [2, 10]: 0
COc1ccc(CCNCCCCCCNCCc2ccc(Cl)c(Cl)c2)cc1OC.Cl [TCMDC-131275] | 39.4 | 42.2 | 31.4 | 46.9 | 0 | 0 | 10.6 | 26.6 | -14.3 | 22.3 | 0 | 
Br.CC(C)(Cc1ccc(Cl)cc1)NCCCCCCNCCc1ccc(O)c(O)c1 [TCMDC-131277] | 21.3 | 17.2 | 18.9 | 31.6 |  |  | 25.5 | 31.9 | 42.8 | 1.4 |  | HitlevelM [1, 9]: 0; HitlevelF [2, 10]: 0
COc1ccc(CCNCCCCCCNCCCc2ccc(Cl)cc2)cc1OC.Cl [TCMDC-131280] | 28.8 | 30.2 | 15.3 | 32.2 | 0 | 0 | 17.7 | 16.6 | 13.1 | 24.0 | 0 | 
Br.CCCCc1ccc(CCNCCCCCCNCCc2ccc(O)c(O)c2)cc1 [TCMDC-131281] |  |  |  |  |  |  |  |  |  |  |  | Average inhibition male (%) [1, 11]: 80.5%; % inhibition male (individual replicates) R1 [1, 11]: 68.8%; % inhibition male (individual replicates) R4 [1, 11]: 77.5%; HitlevelM ([1]; number of replicates with >50% inhibition in the male readout, 2µM): 3; Average inhibition female (%) [2, 11]: 39.8%; % inhibition female (individual replicates) R1 [2, 11]: 30.3%; % inhibition female (individual replicates) R3 [2, 11]: 35.5%; % inhibition female (individual replicates) R4 [2, 11]: 31.1%; HitlevelF ([2]; number of replicates with >50% inhibition in the female readout, 2µM): 1
COc1cccc(CCNCCCCCCNCCc2ccc(Cl)cc2)c1.Cl [TCMDC-131284] | 40.5 | 42.7 | 17.7 | 36.9 | 1 | 0 | 15.8 | 18.4 | 6.6 | 6.5 | 0 | 
Br.Oc1cccc(CCNCCCCCCNCCc2ccc(Cl)cc2)c1 [TCMDC-131285] | 17.5 | 13.8 | 6.4 | 28.9 | 0 | 0 | 14.3 | 12.4 | 15.9 | 17.3 | 0 | 
Cl.NC1=NC(CCc2ccccc2)N(c2ccc(Cl)cc2)C(N)=N1 (stereo not shown) [TCMDC-131290] |  |  |  |  |  |  |  |  |  |  |  | % inhibition male (individual replicates) R1 [1, 4]: -21.3%; % inhibition male (individual replicates) R3 [1, 4]: -9.1%; % inhibition male (individual replicates) R4 [1, 4]: -39.8%; Average inhibition male (%) [1, 5]: -16.9%; % inhibition female (individual replicates) R1 [2, 4]: 1.0%; % inhibition female (individual replicates) R3 [2, 4]: -2.9%; % inhibition female (individual replicates) R4 [2, 4]: -19.8%; Average inhibition female (%) [2, 5]: -10.7%
Br.CCCC1N=C(N)N=C(N)N1c1ccc(CC)cc1 (stereo not shown) [TCMDC-131300] | -2.2 | 7.1 | 2.2 | -35.1 | 0 | 0 | 5.7 | 16.1 | 10.4 | 12.0 | 0 | 
CNCCCCCCOc1ccc(CC(C)NCC(O)c2cccc(C(F)(F)F)c2)cc1.Cl (stereo not shown) [TCMDC-131523] |  |  |  |  |  |  |  |  |  |  |  | % inhibition male (individual replicates) R1 [1, 4]: 2.8%; % inhibition male (individual replicates) R3 [1, 4]: -13.3%; % inhibition male (individual replicates) R4 [1, 4]: 4.2%; Average inhibition male (%) [1, 5]: -0.8%; % inhibition female (individual replicates) R1 [2, 4]: 10.7%; % inhibition female (individual replicates) R3 [2, 4]: -17.9%; % inhibition female (individual replicates) R4 [2, 4]: 1.1%; Average inhibition female (%) [2, 5]: -0.7%
C[C@H](Cc1ccc(OCCNC[C@H](O)c2cccc(Cl)c2)cc1)NC[C@H](O)c1ccc(Cl)c(Cl)c1.O [TCMDC-131547] | 22.6 | 62.1 | 23.6 | 9.5 | 1 | 0 | 17.7 | 20.3 | 33.9 | 3.3 | 0 | 
